Results reported in the supplement of paper PMC10307832.

Experiments:
Experiment in all cases: relative viability (nuclei count vs DMSO), 5 days (fraction); higher = more cells survive
CAP-232 + Linsitinib = compound: C[C@H]([C@@H](C(=O)N)NC(=O)[C@@H]1CSSC[C@@H](C(=O)N[C@H](C(=O)N[C@@H](C(=O)N[C@H](C(=O)N1)CCCCN)CC2=CNC3=CC=CC=C32)CC4=CC=C(C=C4)O)NC(=O)[C@@H](CC5=CC=CC=C5)N)O [CAP-232] + C[C@]1(O)C[C@@H](c2nc(-c3ccc4ccc(-c5ccccc5)nc4c3)c3c(N)nccn32)C1 [Linsitinib] (partner 1 µM)
Procedure, shortened: (§1)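 A single step with final 0.05% Triton X-100, 1% formaldehyde and 1 ug/ml Hoechst fixed the cells and stained nuclei 5 days after treatment. Lung cancer cell lines in 1536-well plates had been treated by pin tool the day after seeding with one drug alone or a fixed anchor-drug dose plus five library-drug doses (not always all listed) in √10 steps, and nuclei were counted on 4× images. Relative viability is the ratio of nuclei in treated wells to nuclei in vehicle wells, taken as the median of duplicate plates.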

CAP-232 + Dasatinib = compound: C[C@H]([C@@H](C(=O)N)NC(=O)[C@@H]1CSSC[C@@H](C(=O)N[C@H](C(=O)N[C@@H](C(=O)N[C@H](C(=O)N1)CCCCN)CC2=CNC3=CC=CC=C32)CC4=CC=C(C=C4)O)NC(=O)[C@@H](CC5=CC=CC=C5)N)O [CAP-232] + Cc1nc(Nc2ncc(C(=O)Nc3c(C)cccc3Cl)s2)cc(N2CCN(CCO)CC2)n1 [Dasatinib] (partner 0.075 µM)
Procedure, shortened: as §1

CAP-232 + Vorinostat = compound: C[C@H]([C@@H](C(=O)N)NC(=O)[C@@H]1CSSC[C@@H](C(=O)N[C@H](C(=O)N[C@@H](C(=O)N[C@H](C(=O)N1)CCCCN)CC2=CNC3=CC=CC=C32)CC4=CC=C(C=C4)O)NC(=O)[C@@H](CC5=CC=CC=C5)N)O [CAP-232] + O=C(CCCCCCC(=O)Nc1ccccc1)NO [Vorinostat] (partner 1 µM)
Procedure, shortened: as §1

CAP-232 + Olaparib = compound: C[C@H]([C@@H](C(=O)N)NC(=O)[C@@H]1CSSC[C@@H](C(=O)N[C@H](C(=O)N[C@@H](C(=O)N[C@H](C(=O)N1)CCCCN)CC2=CNC3=CC=CC=C32)CC4=CC=C(C=C4)O)NC(=O)[C@@H](CC5=CC=CC=C5)N)O [CAP-232] + O=C(c1cc(Cc2n[nH]c(=O)c3ccccc23)ccc1F)N1CCN(C(=O)C2CC2)CC1 [Olaparib] (partner 8 µM)
Procedure, shortened: as §1

CAP-232 + Tozasertib = compound: C[C@H]([C@@H](C(=O)N)NC(=O)[C@@H]1CSSC[C@@H](C(=O)N[C@H](C(=O)N[C@@H](C(=O)N[C@H](C(=O)N1)CCCCN)CC2=CNC3=CC=CC=C32)CC4=CC=C(C=C4)O)NC(=O)[C@@H](CC5=CC=CC=C5)N)O [CAP-232] + Cc1cc(Nc2cc(N3CCN(C)CC3)nc(Sc3ccc(NC(=O)C4CC4)cc3)n2)n[nH]1 [Tozasertib] (partner 0.1 µM)
Procedure, shortened: as §1

| Cell Line | relative viability (CAP-232 + Linsitinib; first compound 0.4 µM) | relative viability (CAP-232 + Linsitinib; first compound 1.265 µM) | relative viability (CAP-232 + Linsitinib; first compound 4 µM) | relative viability (CAP-232 + Linsitinib; first compound 12.65 µM) | relative viability (CAP-232 + Dasatinib; first compound 0.4 µM) | relative viability (CAP-232 + Dasatinib; first compound 1.265 µM) | relative viability (CAP-232 + Dasatinib; first compound 4 µM) | relative viability (CAP-232 + Dasatinib; first compound 12.65 µM) | relative viability (CAP-232 + Vorinostat; first compound 0.4 µM) | relative viability (CAP-232 + Vorinostat; first compound 1.265 µM) | relative viability (CAP-232 + Vorinostat; first compound 4 µM) | relative viability (CAP-232 + Vorinostat; first compound 12.65 µM) | relative viability (CAP-232 + Olaparib; first compound 0.4 µM) | relative viability (CAP-232 + Olaparib; first compound 1.265 µM) | relative viability (CAP-232 + Olaparib; first compound 4 µM) | relative viability (CAP-232 + Olaparib; first compound 12.65 µM) | relative viability (CAP-232 + Tozasertib; first compound 0.4 µM) | relative viability (CAP-232 + Tozasertib; first compound 1.265 µM) | relative viability (CAP-232 + Tozasertib; first compound 4 µM) | relative viability (CAP-232 + Tozasertib; first compound 12.65 µM) |
| --- | --- | --- | --- | --- | --- | --- | --- | --- | --- | --- | --- | --- | --- | --- | --- | --- | --- | --- | --- | --- |
| NCI-H2023 | 0.659 | 0.615 | 0.697 | 0.249 | 0.696 | 0.598 | 0.608 | 0.137 | 0.599 | 0.426 | 0.645 | 0.251 | 0.485 | 0.498 | 0.497 | 0.326 | 0.348 | 0.332 | 0.379 | 0.139 |
| NCI-H2085 | 0.816 | 1.04 | 0.955 | 0.843 | 0.232 | 0.193 | 0.223 | 0.19 | 0.852 | 0.819 | 0.779 | 0.832 | 0.825 | 0.764 | 0.743 | 0.771 | 0.94 | 0.816 | 0.827 | 0.844 |
| NCI-H2087 | 0.894 | 0.955 | 0.924 | 0.541 | 0.681 | 0.969 | 0.757 | 0.737 | 0.985 | 0.728 | 0.886 | 0.439 | 0.646 | 0.669 | 0.697 | 0.312 | 0.193 | 0.212 | 0.221 | 0.311 |
| NCI-H2126 | 0.722 | 0.709 | 0.736 | 0.74 | 0.639 | 0.585 | 0.704 | 0.571 | 0.827 | 0.795 | 0.755 | 0.857 | 0.899 | 0.866 | 0.992 | 0.914 | 0.801 | 0.799 | 0.885 | 0.822 |
| NCI-H2228 | 0.596 | 0.581 | 0.521 | 0.646 | 0.482 | 0.565 | 0.479 | 0.365 | 0.657 | 0.389 | 0.597 | 0.709 | 0.766 | 0.73 | 0.92 | 0.361 | 0.257 | 0.28 | 0.195 | 0.263 |
| NCI-H2347 | 0.989 | 0.967 | 1.04 | 1.01 | 0.28 | 0.285 | 0.342 | 0.292 | 0.63 | 0.613 | 0.585 | 0.487 | 0.651 | 0.528 | 0.606 | 0.598 | 0.564 | 0.545 | 0.517 | 0.521 |
| NCI-H2405 | 0.789 | 1.06 | 0.868 | 0.547 | 0.233 | 0.203 | 0.196 | 0.208 | 1.22 | 1.09 | 1.01 | 0.79 | 0.836 | 0.957 | 0.831 | 0.53 | 0.728 | 0.751 | 0.761 | 0.683 |
| NCI-H3122 | 0.991 | 0.979 | 1.01 | 1.08 | 0.781 | 0.804 | 0.847 | 0.833 | 1.07 | 1.05 | 0.883 | 0.945 | 0.664 | 0.656 | 0.847 | 0.546 | 0.344 | 0.36 | 0.292 | 0.252 |
| PC-3 [JPC-3] | 1.05 | 1 | 0.902 | 0.972 | 1.08 | 1.06 | 1.08 | 0.908 | 1.3 | 0.741 | 0.864 | 0.741 | 1.16 | 1.21 | 1.2 | 1.08 | 1.05 | 0.949 | 0.924 | 0.91 |
| PC-14 | 1.01 | 0.955 | 0.955 | 0.775 | 0.211 | 0.256 | 0.253 | 0.129 | 0.793 | 0.701 | 0.725 | 0.522 | 0.265 | 0.264 | 0.213 | 0.239 | 0.644 | 0.575 | 0.542 | 0.565 |
| RERF-LC-KJ | 1.01 | 0.886 | 0.933 | 0.854 | 0.695 | 0.871 | 0.735 | 0.27 | 0.817 | 0.763 | 0.706 | 0.485 | 0.98 | 0.893 | 1.03 | 0.721 | 0.562 | 0.444 | 0.433 | 0.351 |
| SK-LU-1 | 1.06 | 1.2 | 1.15 | 1.06 | 0.174 | 0.176 | 0.158 | 0.17 | 0.744 | 0.792 | 0.761 | 0.591 | 0.388 | 0.44 | 0.412 | 0.408 | 0.309 | 0.314 | 0.289 | 0.203 |
| SK-MES-1 | 1.09 | 1.14 | 1 | 1.01 | 0.339 | 0.317 | 0.341 | 0.203 | 1.3 | 1.13 | 1.02 | 0.489 | 0.747 | 0.718 | 0.762 | 0.607 | 0.903 | 0.893 | 0.905 | 0.774 |
| SW 1573 | 0.751 | 0.781 | 0.731 | 0.683 | 0.416 | 0.493 | 0.603 | 0.0706 | 0.7 | 0.867 | 0.926 | 0.309 | 0.395 | 0.416 | 0.469 | 0.356 | 0.185 | 0.207 | 0.189 | 0.126 |
